Key:
[1] = tested on: mammalian (porcine) trehalase; assay: Trehalase degradation assay; assay type: in vitro ADME; conditions: 0.3 units/mL trehalase, 10 mM substrate
Protocol: The metabolic stabilities of the remaining three analogs, [^18F]FDT, 4-epi-[^18F]FDT and 6-[^18F]FDT were tested. Although, human trehalose-degrading trehalase activity is low and restricted primarily to the brush-border of the kidney where it is thought to be GPI-anchored[28],[32], it can be elevated in some diseases, therefore we also tested degradation of the analogs in vitro using high concentrations of mammalian (porcine) trehalase (0.3 units/mL, 10 mM substrate, Fig. S5). […]
Figure S5. Trehalase Assays.
Substrates were prepared to a final concentration of 10 mM in 0.05 M citric acid, pH 5.7 including trehalase stock solution (0.3 units/mL). The reaction mixture was incubated at 37 °C for 60 minutes, and then quenched with an equal volume of 0.1 M Tris, pH 7.5. Released glucose was measured with glucose assay kit (see Methods).

[2] = [19F]FDT clearance and in vivo stability in marmosets (plasma LC-MS, 19F NMR); parameters: species or system common marmosets; conditions: marmosets (n = 3), LC-MS and 19F-NMR
Protocol: In order to determine [^19F]FDT metabolism in vivo, we assessed concentration vs time in two mammalian species: common marmosets and C57BL/6 mice. For marmosets weighing between 290.3–340.3 g, 20 mg of sterile-filtered FDT in PBS was injected IV (n = 3) and ~200 μL blood samples were taken from the femoral vein at 0 min, 5 min, 30 min, 60 min, 90 min and 180 min post injection. Samples were spun (4000 rcf for 10 mins at room temp) to separate red cell mass from plasma. Plasma portion was separated and stored at −80 °C for further analysis. Similarly, mice weighing from 18.7–20.5 g were injected (n = 5) with 5 mg of filter-sterilized FDT solution dissolved in PBS solution, pH 7.4. Mandibular blood samples were taken at 2 min, 15 min, 30 min and 45 min post injection. For the last sample in each mouse, the animal was bled out to get maximum sample for NMR analysis. Final urine samples were collected in 3 out of 5 mice through free catch. Blood samples were centrifuged (6500 rcf for 4 mins at room temp) to separate red cell mass from plasma, and plasma was separated and stored at −80 °C prior to analyzes.
Plasma samples from −80 °C were thawed on ice and mixed with 80% acetonitrile to precipitate plasma proteins and other biomolecules. Samples were centrifuged at 10,000 g, 4 °C for 10 min.
Figure S37. [19F]FDT Clearance and In Vivo Stability in Non-human Primates […]
(§1) A, B) 20 mg [19F]FDT was injected into marmosets (A, n=3 biological replicates, each measured in duplicate) and 5 mg FDT injected into mice (B, n=5 biological replicates, each measured in triplicate). […]
marmosets (A) and mice (B).
[19F]FDG was detected, consistent with the only low levels of metabolism seen with [18F]FDT in rabbits (see Figure S3G). C-F) We further analyzed the potential degradation of FDT into FDG by 19F NMR spectroscopy in marmoset plasma (C) sample from 5 min time point, mouse plasma (D) sample from 30 min time point and mouse urine samples from 30 min (E) and 45 min (F) time points, respectively. In all these samples only [19F]FDT was observed (d -201.2). The data points are average values from three replicates with error bars ± SD.
(1 picture or pasted object on this page, not shown here)

[3] = [19F]FDT in vivo stability in mice (plasma/urine LC-MS, 19F NMR); conditions: mice (n = 5), LC-MS and 19F-NMR
Protocol: For initial in vivo study, six white mice, CD1, male, weighing between 22–26 grams, were used. Two concentrations of [^19F]FDT (500 μM and 50 μM, final concentration in the blood) were injected into the mice, through the tail vein injection. Prior to injection, each mouse was pre-bled (100 μL) and control samples were obtained. […] Samples were spun at 13000 rpm (15871 x g) for 10 min and the supernatant (plasma) was used for further analysis. 200 μL of plasma sample was transferred into fresh 1.5 mL Eppendorf tube and diluted with equal amount of acetonitrile to precipitate out blood plasma protein and other macromolecules. Samples were further spun at 13000 rpm (15871 x g) for 5 min.
In order to determine [^19F]FDT metabolism in vivo, we assessed concentration vs time in two mammalian species: common marmosets and C57BL/6 mice. For marmosets weighing between 290.3–340.3 g, 20 mg of sterile-filtered FDT in PBS was injected IV (n = 3) and ~200 μL blood samples were taken from the femoral vein at 0 min, 5 min, 30 min, 60 min, 90 min and 180 min post injection. […]
as §1
[19F]FDG was detected, consistent with the only low levels of metabolism seen with [18F]FDT in rabbits (see Figure S3G). […]

## OC[C@H]1O[C@H](O[C@H]2O[C@H](CO)[C@@H](O)[C@H](O)[C@H]2F)[C@H](O)[C@@H](O)[C@@H]1O [[^19F]FDT]
[1]
  degradation by trehalase: little or no degradation
[1]; pH 5.7, 37 °C, 60 minutes
  degradation by trehalase (Figure S5, released glucose): 0
[2]
  degradation in plasma / in vivo: no detectable degradation
[2]; listed as [19F]FDT
  degradation in plasma / in vivo: no degradation
[3]
  degradation in plasma / in vivo: no detectable degradation
[3]; listed as [19F]FDT
  degradation in plasma / in vivo: no degradation

From PMC11211441, “Distributable, metabolic PET reporting of tuberculosis” (Nature Communications, 2024)
